Like-named read-outs stand apart in the source and are kept apart here.
Assays:
[1] = system: patients, unsegmented populations; conditions: first generation antipsychotics; Davis et al. (2003); cited from earlier work
[2] = system: CATIE Phase I non-responders; conditions: CATIE Phase II, LOCF; for Responders (number): decrease PANSS ≧ 20%
[3] = system: patients, populations not segmented by SULT4A1-1 status; conditions: meta-analysis, Leucht et al. (2009); negative = greater reduction in PANSS; cited from earlier work
[4] = system: CATIE Caucasian schizophrenia patients; assay: CATIE Phase 1 drug response: change in total PANSS (LOCF), drug switchers, segmented by SULT4A1-1 status; type: in vivo, human; conditions: for ≦−20% (number of individuals with this percent change in total PANSS; responders) / ≧−20% (number of individuals with this percent change in total PANSS; non-responders): CATIE Caucasians, LOCF
From the text: There are several different metrics for quantifying response in clinical trials of antipsychotic medications. The most commonly used psychometric instrument is the Positive and Negative Syndrome Scale (PANSS), a 30-item semi-quantitative instrument scored by clinical professionals (Kay et al., 1987). The greater the decrease in PANSS score, the better the clinical response. The most direct measure of clinical response is absolute change in PANSS score. In addition to absolute change, the improvement is often reported as a percentage change from baseline PANSS score.
A decrease of at least 20% in total PANSS is one commonly used threshold for response (Leucht et al., 2009).
The design of the CATIE study has been described in detail by others (Lieberman et al., 2005; Stroup et al., 2003). […] A total of 738 subjects consented to provide DNA for genetic study. […] Retrospective genetic analyses, judged to be exempt from human studies requirements by an IRB, were conducted in the current study.
All tested patients were studied using well established clinical endpoints comparing baseline, intermediate, and last observation carried forward (LOCF) for the PANSS scores using CATIE data. LOCF analysis is a commonly used clinical endpoint for clinical trials for neuropsychiatric drugs, with changes in PANSS scores of between negative 20% and negative 30% used as typical endpoints to indicate clinically significant response (Leucht et al., 2009). To remove time on drug as a variable for the CATIE trial, analysis was limited to only those patients who were randomized to a different drug following the initial washout period (drug switchers).
As mentioned previously, the mean change in absolute or percent PANSS provides an important measure of efficacy in patients undergoing antipsychotic treatments. Indeed, many pivotal trials in the psychosis field used absolute and/or percentage change in PANSS Score as the primary endpoint (Leucht et al., 2009). […] Therefore, in addition to examining a categorical definition of clinically significant response, the inventors determined the impact of segmentation by SULT4A1-1 status on the quantitative measure of clinical improvement—delta PANSS.

[5] = Table 16, 20% decrease in PANSS threshold, SULT4A1-1 positive group (sign not given)

OCCOCCN1CCN(C2=Nc3ccccc3Sc3ccccc32)CC1 [Quetiapine]
Effect Size vs. FGA [1]: 0.01 | Nonresponders (number) ([2]; SULT4A1-1 Negative): 10 | Responders (number) ([2]; SULT4A1-1 Negative): 1 | Nonresponders (number) ([2]; SULT4A1-1 Positive): 1 | Responders (number) ([2]; SULT4A1-1 Positive): 0 | Effect Size vs. Placebo [3]: −0.42 | Mean Difference in Total PANSS Score, Olanzapine vs. labelled drug ([4]; CATIE SULT4A1-1 −): −3.8 | Mean Difference in Total PANSS Score, Olanzapine vs. labelled drug ([4]; CATIE unsegmented): −6.2 | ≦−20% (number of individuals with this percent change in total PANSS; responders) ([4]; SULT4A1-1 Negative): 13 | ≧−20% (number of individuals with this percent change in total PANSS; non-responders) ([4]; SULT4A1-1 Negative): 50 | ≦−20% (number of individuals with this percent change in total PANSS; responders) ([4]; SULT4A1-1 Positive): 7 | ≧−20% (number of individuals with this percent change in total PANSS; non-responders) ([4]; SULT4A1-1 Positive): 11 | Non Responder (number) [4, 5]: 11 | Responder (number) [4, 5]: 7
